# Data taken from the supplement of paper PMC11061612.
# Columns and labels:
# Experiment in all cases: Bliss excess, mean over the matrix (fraction); higher = more synergy
# [1] = test system: D-283MED (Other Solid Carcinomas)
# Procedure, shortened: (§1)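 Cell lines grown in DMEM/F12 or RPMI with 10% FBS were plated in 1536-well plates and held 24 hours at 37°C, 5% CO2 before 72 hours of exposure to two-drug dose matrices, with DMSO typically at 0.2%. CellTiter-Glo 2.0 luminescence gave viability, which was converted to inhibition. Vehicle wells were set to 0 and blank wells to 1. Combination Emax is the second-highest inhibition in the matrix, and Bliss excess is the observed combination effect minus the expected EA + EB − EA·EB, where EA and EB are the single-agent effects.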
# D-392MG (Glioblastoma) = test system: D-392MG (Glioblastoma)
# Procedure, shortened: as §1
# HCC38 (Breast Carcinoma) = test system: HCC38 (Breast Carcinoma)
# Procedure, shortened: as §1
# [2] = test system: MEG-01 (Chronic Myelogenous Leukemia)
# Procedure, shortened: as §1
# MSTO-211H (Mesothelioma) = test system: MSTO-211H (Mesothelioma)
# Procedure, shortened: as §1
# [3] = test system: NOMO-1 (Acute Myeloid Leukemia)
# Procedure, shortened: as §1
# [4] = test system: SK-UT-1 (Other Solid Carcinomas)
# Procedure, shortened: as §1
# [5] = test system: SNG-M (Endometrial Carcinoma)
# Procedure, shortened: as §1
# [6] = test system: SW48 (Colorectal Carcinoma)
# Procedure, shortened: as §1
# [7] = test system: SW948 (Colorectal Carcinoma)
# Procedure, shortened: as §1
# Saos-2 (Osteosarcoma) = test system: Saos-2 (Osteosarcoma)
# Procedure, shortened: as §1
# [8] = test system: TC-YIK (Other Solid Carcinomas)
# Procedure, shortened: as §1
# [9] = test system: WSU-DLCL2 (B-Cell Non-Hodgkin's Lymphoma)
# Procedure, shortened: as §1
# [10] = test system: YT (Other Blood Carcinomas)
# Procedure, shortened: as §1
Structure (SMILES),Bliss excess [1],Bliss excess (D-392MG (Glioblastoma)),Bliss excess (HCC38 (Breast Carcinoma)),Bliss excess [2],Bliss excess (MSTO-211H (Mesothelioma)),Bliss excess [3],Bliss excess [4],Bliss excess [5],Bliss excess [6],Bliss excess [7],Bliss excess (Saos-2 (Osteosarcoma)),Bliss excess [8],Bliss excess [9],Bliss excess [10]
"O=C(c1cc(Cc2n[nH]c(=O)c3ccccc23)ccc1F)N1CCN(C(=O)C2CC2)CC1 [Olaparib] + CN(CC[C@H](CSC1=CC=CC=C1)NC2=C(C=C(C=C2)S(=O)(=O)NC(=O)C3=CC=C(C=C3)N4CCC(CC4)[C@H](C5=CC=CC=C5C6=CC=C(C=C6)Cl)O)S(=O)(=O)C(F)(F)F)CCO [AZD4320] (first compound max 10 µM, 7x7, partner max 1 µM)",0.0204,-0.0317,-0.0541,-0.009,-0.0173,0.034,0.0299,-0.014,-0.0239,-0.0165,-0.0312,0.0047,0.0579,-0.0505
"O=C(c1cc(Cc2n[nH]c(=O)c3ccccc23)ccc1F)N1CCN(C(=O)C2CC2)CC1 [Olaparib] + COc1nnc2ccc(N3CCC(c4ccc(OCCN5CCN(C)C(=O)[C@H]5C)cc4)CC3)nn12 [AZD5153] (first compound max 10 µM, 7x7, partner max 1 µM)",-0.0542,-0.0759,-0.0793,-0.0579,-0.0085,-0.0589,-0.02,-0.0663,-0.071,-0.0441,-0.02,-0.0784,-0.0091,-0.107
"O=C(c1cc(Cc2n[nH]c(=O)c3ccccc23)ccc1F)N1CCN(C(=O)C2CC2)CC1 [Olaparib] + Cc1c2c(nn1C)CSCc1cc(n(C)n1)CSc1cc(c3ccccc3c1)OCCCc1c(C(=O)O)n(C)c3c-2c(Cl)ccc13 [AZD5991] (first compound max 10 µM, 7x7, partner max 1 µM)",0.0172,-0.0661,-0.0457,-0.0416,-0.029,-0.0167,-0.0141,0.002,-0.0253,-0.0449,-0.0087,-0.0566,0.0378,0.0191
"N#Cc1cnc(Nc2cc(NC[C@H]3CNCCO3)c(C(F)(F)F)cn2)cn1 [SRA737] + C=CCn1c(=O)c2cnc(Nc3ccc(N4CCN(C)CC4)cc3)nc2n1-c1cccc(C(C)(C)O)n1 [AZD1775] (first compound max 10 µM, partner max 1 µM)",0.0779,-0.0523,0.0088,-0.0314,0.131,0.0706,0.0497,-0.0045,0.0468,0.0054,0.0939,0.0278,0.205,0.0379
"N#Cc1cnc(Nc2cc(NC[C@H]3CNCCO3)c(C(F)(F)F)cn2)cn1 [SRA737] + CCc1c2c(nc3ccc(O)cc13)-c1cc3c(c(=O)n1C2)COC(=O)[C@]3(O)CC [SN-38] (first compound max 10 µM, 7x7, partner max 0.3 µM)",-0.0395,-0.0555,-0.049,0.0468,-0.024,-0.039,-0.0033,-0.111,-0.0411,0.154,-0.0303,-0.0041,0.0055,-0.0677
"N#Cc1cnc(Nc2cc(NC[C@H]3CNCCO3)c(C(F)(F)F)cn2)cn1 [SRA737] + Nc1ccn([C@@H]2O[C@H](CO)[C@@H](O)C2(F)F)c(=O)n1 [Gemcitabine] (first compound max 10 µM, 7x7, partner max 0.3 µM)",0.0135,0.0579,-0.0054,-0.0324,-0.0082,-0.0169,0.0162,-0.0731,0.0107,0.079,0.0276,-0.0605,0.111,0.0694
"N#Cc1cnc(Nc2cc(NC[C@H]3CNCCO3)c(C(F)(F)F)cn2)cn1 [SRA737] + O=c1[nH]cc(F)c(=O)[nH]1 [5-Fluorouracil] (first compound max 10 µM, 7x7, partner max 20 µM)",-0.0048,-0.0369,0.0257,-0.0518,0.0301,-0.0007,-0.0052,-0.0115,-0.0588,-0.0314,-0.0179,0.0119,0.114,0.0012
"CC1(C)CCC(CN2CCN(c3ccc(C(=O)NS(=O)(=O)c4ccc(NCC5CCOCC5)c([N+](=O)[O-])c4)c(Oc4cnc5[nH]ccc5c4)c3)CC2)=C(c2ccc(Cl)cc2)C1 [Venetoclax] + CS(=O)(=O)CCNCc1ccc(-c2ccc3ncnc(Nc4ccc(OCc5cccc(F)c5)c(Cl)c4)c3c2)o1 [Lapatinib] (first compound max 1 µM, 7x7, partner max 10 µM)",-0.0416,-0.0732,-0.0355,-0.0101,-0.019,0.0105,-0.0286,-0.0166,0.0163,-0.0407,-0.0131,-0.0035,0.0902,0.0123
